ChEMBL document CHEMBL1132790, “Synthesis and biological activity of a bivalent nucleotide inhibitor of ribonucleotide reductase” (Bioorg Med Chem Lett, 2000)

Experiment: (§1) Compound was tested for ribonucleotide reductase (RR) activity by inhibition of dGTP-activated ADP reduction

With `Nc1ncnc2c1ncn2[C@@H]1O[C@H](COP(=O)(O)OP(=O)(O)O)[C@@H](O)[C@H]1O` as the compound, how does the Km read?
The Km was 34 µM.

Experiment: as §1

Which Ki does the source give for `Nc1nc(O)c2nc(S)n(C3CC(O)C(COP(=O)(O)OP(=O)(O)OP(=O)(O)O)O3)c2n1` (stereo not drawn) here?
Its Ki is 13 µM.

For `Nc1ncnc2c1nc(S)n2C1O[C@@H](COP(=O)(O)OP(=O)(O)O)[C@H](O)[C@@H]1O` (stereo partly drawn), which Ki is on record?
The Ki was 158 µM.

With `C=CS(=O)(=O)CCCCCCS(=O)(=O)CCSc1nc2c(O)nc(N)nc2n1C1C[C@@H](O)[C@H](COP(=O)(O)OP(=O)(O)OP(=O)(O)O)O1` (stereo partly drawn) as the compound, how does the Ki read?
The Ki was 9 µM.

Which Ki does the source give for `Nc1nc(O)c2nc(Br)n(C3CC(O)C(COP(=O)(O)OP(=O)(O)OP(=O)(O)O)O3)c2n1` (stereo not drawn) here?
The Ki was 56 µM.

With `Nc1ncnc2c1nc(Br)n2[C@@H]1O[C@H](COP(=O)(O)OP(=O)(O)O)[C@@H](O)[C@H]1O` as the compound, how does the Ki read?
Its Ki is 77 µM.

Which Ki does the source give for `C=CS(=O)(=O)CCCCCCS(=O)(=O)CCSc1nc2c(N)ncnc2n1C1O[C@@H](COP(=O)(O)OP(=O)(O)O)[C@H](O)[C@@H]1O` (stereo partly drawn) here?
Its Ki is 22 µM.

For `Nc1ncnc2c1nc(SCCS(=O)(=O)CCCCCCS(=O)(=O)CCSc1nc3c(N)ncnc3n1C1O[C@H](COP(=O)(O)OP(=O)(O)O)[C@@H](O)[C@H]1O)n2C1O[C@H](COP(=O)(O)OP(=O)(O)O)[C@H](O)[C@@H]1O` (stereo partly drawn), which Ki is on record?
The Ki was 19 µM.
